Source: patent publication US20040248871A1, “Use of lysyl oxidase inhibitors for cell culture and tissue engineering” (priority 2001, published 2004)

Tests used:
[1] = test system: chondrocytes from the sternum of chicken embryos; test: Dedifferentiation of chicken embryo chondrocytes in two-dimensional culture on plastic (fluorography of 14C-proline labelled collagens, morphology); format: cell-based
Source text: a) The experimental chondrocyte culture model is the one with the culture of chicken embryo chondrocytes on plastic in two dimensions. The embryonic state of the cells allows a high level of synthesis of the collagens, unlike the adult chondrocytes. The chicken sternum from which the chondrocytes originates Makes it possible to obtain two pure sub-populations of chondrocytes capable or not capable of subsequently hypertrophying (respectively, the chondrocytes of the cranial or caudal section of the sternum). […] The results which are described always distinguish the sub-population of the chondrocytes studied.
The cultures with 4 mM L-glutamine antibiotics, and 25 μg/ml ascorbate (factor necessary for the stability of the secreted collagen triple helix units) are continued for 2 weeks in the presence or absence of 10% serum, optionally replaced by 100 ng/ml insulin, and by 50 μg/ml βAPN. The absence of serum necessitates the addition of protective agents (1 mM cysteine and 1 mM pyruvate). A day before taking the samples, 10 μCi of 14C Proline is added to the cultures the lawns or media of which are then pepsinated (0.2 mg pepsin/ml/pH 4/24 hours) and subjected to electrophoretic (SDS PAGE gradient of 4.5 at 15% acrylamide) then fluorographic analysis. The fluorographs then reveal the only pepsin-resistant protein bands, essentially the collagens and lipocalines (proteins with lipid transport). The known position of these bands allows the indication of the dedifferentiation of the cells by the appearance of the α2 I chain of collagen I associated with the lowering of the synthesis of the collagens of cartilage type.
βAPN (50 μg/ml) is added immediately upon inoculation, to the culture medium which is renewed every 2 days and applied to the cultures of chondrocytes as well as to those of fibroblasts then of keratinocytes during the formation of the reconstructed skin. […]

[2] = test system: hypertrophic chondrocytes of chicken embryos; test: Reversibility of effects on bridgings of collagen IX chains in cell lawn of hypertrophic chondrocytes (fluorography); format: cell-based; details: washings with PBS then medium without βAPN
Experimental: Chondrocytes of the cranial section of the sternum were inoculated at a high concentration (5 million cells per P35 Petri dish) then subjected to 24 hours of radio-labelling with proline 14C on the 7th, 14th and […] day of culture (respectively day 7, day 14 and day 21).
βAPN was present (+) or absent. (−) for the entire duration of the culture, or present only during the first week ((+)).

[3] = test system: chondrocytes, fibroblasts, keratinocytes; test: Toxicity and multiplication of the cells in culture at the standard concentration; format: cell-based; details: 50 μg/ml
Experimental: (§1) βAPN (50 μg/ml) is added immediately upon inoculation, to the culture medium which is renewed every 2 days and applied to the cultures of chondrocytes as well as to those of fibroblasts then of keratinocytes during the formation of the reconstructed skin.

keratinocytes = test: Keratinocytes cultured in monolayer: cell count and MTT viability test; format: cell-based, human
Source text: (§2) The support of the reconstructed skin model is constituted by a dermal substrate (DS) with a base of collagen-glycosaminoglycan cross-linked by chitosan according to the technique published by Duplan-Perrat et al (J Invest Dermatol 2000 114:365). Fibroblasts are inoculated the inside of the DS in order to obtain an equivalent dermis. The reconstituted skin (RS) is obtained by inoculating the keratinocytes after 15 days (day 15) of culture in equivalent dermis. The dermal fibroblasts are obtained from explants of human prepuces after dermal-epidermal separation and cultured in monolayer in DMEM medium (Sigma) supplemented by 10% fœtal calf serum, 4 mM L-glutamine, EGF (Austral Biologic) at 10 ng/ml, penicillin at 100 UI/ml, gentamicin at 100 μg/ml and amphotericin B at 1 μg/ml. The keratinocytes are from a human skin biopsy sample after dermal-epidermal separation by trypsination. The cells are inoculated nutritive layers (irradiated fibroblasts) and cultured in DMEM and HAM F12 at 30% supplemented with fœetal calf serum at 10%, EGF at 10 ng/ml, hydrocortisone at 1.6 ng/ml, umulin at 0.12 UI/ml, choleratoxin at 0.1 nM, triiodothyronine at 0.2 μM, adenine at 24 μg/ml, 4 mM L-Glutamine, penicillin at 100 UI/ml, gentamicin at 100 μg/ml and amphotericin B at 1 μg/ml.
In fact, the number of these cells is reduced by approximately 50% compared to the control when they are cultured in the presence of 600 μg/ml of βAPN. […] The results of the MTT viability test confirm those of the cell count. […] It must be emphasized that βAPN at 200 μg/ml can optionally cause an increase in cell activity (proliferation and viability) on the fibroblasts inoculated at a low density, and on the fibroblasts and the keratinocytes inoculated at a high density.

[4] = test system: reconstructed skin (fibroblasts and keratinocytes); test: Retraction (surface area) of reconstructed skins; format: cell-based, human; details: for surface area compared to the initial original surface area: 35 days of culture
Source text: (§3) The method allowing the formation of the reconstructed skin is that described in the French Patent 87-08252 of the 15th Jun. 1987.
as §2
A mixture with a base of bovine collagen of type I and III (72%), glycosaminoglycan (8%) cross-linked by chitosan (20%) is poured into 6-well plates. The dermal substrates thus obtained are then frozen at −80° C. and lyophilized. The fibroblasts are inoculated in the dermal substrate, rehydrated and sterilized at a rate of 250,000 cells per cm^2. Keratinocytes are inoculated after 15 days (day 15) at a density of 200,000 to 250,000 cells/cm^2. The reconstructed skins are cultured for 8 days in immersion, in the medium described previously supplemented with 50 μg/ml of vitamin C. Then the reconstructed skins are raised to the air-liquid interface using a simplified culture medium with a DMEM base, supplemented with fœtal calf serum, EGF, hydrocortisone, umulin, L-glutamine, penicillin, gentamicin, and amphotericin B, and ascorbic acid, at the concentrations described above. The reconstructed skins are cultured up to day 60. Samples are taken at day 30 and day 60 for the different analyses.
as §1

[5] = test system: reconstructed skin (fibroblasts and keratinocytes); test: Histology, immunohistology and in situ hybridization of reconstructed skins; format: cell-based, human
Source text: as §3, §2
A mixture with a base of bovine collagen of type I and III (72%), glycosaminoglycan (8%) cross-linked by chitosan (20%) is poured into 6-well plates. The dermal substrates thus obtained are then frozen at −80° C. and lyophilized. The fibroblasts are inoculated in the dermal substrate, rehydrated and sterilized at a rate of 250,000 cells per cm^2. Keratinocytes are inoculated after 15 days (day 15) at a density of 200,000 to 250,000 cells/cm^2. The reconstructed skins are cultured for 8 days in immersion, in the medium described previously supplemented with 50 μg/ml of vitamin C. […]

## N#CCCN [βAPN, β-aminopropionitrile]
[1]; 50 μg/ml, after 2 weeks of culture
  effectiveness against dedifferentiation of the chondrocytes: total
[1]; 50 μg/ml, cranial chondrocytes, in the presence of serum, 2 weeks, 2D on plastic
  biochemical dedifferentiation of the chondrocytes (collagen I secreted, stopping of the synthesis of collagen X): totally inhibited
[1]; after 3 days of culture, in the presence of serum, media and cell lawns
  expression of collagen X by the hypertrophic (cranial) chondrocytes: allows the normal expression of collagen X
[2]
  reversibility of the modifications in the bridgings between chains of collagen IX after elimination of βAPN: ≤ 6 days
[3]
  toxicity for the cells: not toxic
keratinocytes; 200 μg/ml
  reduction of proliferation of the keratinocytes: approximately 10%
keratinocytes; 200 μg/ml, isolated cultures
  effect on the viability and the multiplication: little effect
keratinocytes; 600 μg/ml
  reduction of the number of cells compared to the control: approximately 50%
keratinocytes; cell count and MTT
  concentration with inhibiting effect on proliferation: greater than 500 μg/ml
keratinocytes; up to 800 μg/ml
  toxic effect on cells at confluence: no toxic effect
[4]; 50 μg/ml
  surface area compared to the initial original surface area: 50%
[4]; 50 μg/ml, after two weeks at the air-liquid interface
  surface area compared to the non-treated control: do not show any significant difference
[4]; 200 μg/ml
  surface area compared to the initial original surface area: 40%
[4]; 500 μg/ml
  surface area compared to the initial original surface area: 40%
[4]; 500 μg/ml, immersed, before raising to the air-liquid interface
  reduction in surface area compared to original state: 17%
[4]; 200 or 500 μg/ml, after two weeks at the air-liquid interface
  surface area compared to that of the control: significantly greater surface area
[4]; skins still in immersed culture
  retraction compared to the control: significant dose-dependent reduction
[5]; 50 μg/ml or 200 μg/ml
  histology of the reconstructed skins: does not seem to be fundamentally changed
[5]; 50 μg/ml, dermis and epidermis
  detection of the LOX and LOXL genes by in situ hybridization: slight increase
[5]; dermis of reconstructed skin
  synthesis of extracellular matrix / colonization of the sponge by the fibroblasts: increased synthesis of ECM
